Laboratory results: publication PMC10102062, “Effects of DPTQ, a novel positive allosteric modulator of the dopamine D1 receptor, on spontaneous eye blink rate and spatial working memory in the nonhuman primate” (Psychopharmacology, 2023)

Assays:
[1] = tested on: human D1; set-up: method as in Hao et al. [2019]; conditions: stably transfected human D1 cloned cells; ref Hao et al. [2019]; read-out: EC50 for potentiation of the dopamine-induced increase in cAMP; cited from earlier work
[2] = biological target: T1, rhesus monkey D1 receptor (Macaca mulatta, UniProt O77680); test: cAMP assay: potentiation of EC20 dopamine in transiently transfected HEK293 cells; format: cell-based; conditions: rhesus D1, HEK293 transient, n = 4
T1 construct: expressed in transfected cells; host or cells: HEK293 (transient, Jump-In vector)
T1 sequence (O77680 whole entry): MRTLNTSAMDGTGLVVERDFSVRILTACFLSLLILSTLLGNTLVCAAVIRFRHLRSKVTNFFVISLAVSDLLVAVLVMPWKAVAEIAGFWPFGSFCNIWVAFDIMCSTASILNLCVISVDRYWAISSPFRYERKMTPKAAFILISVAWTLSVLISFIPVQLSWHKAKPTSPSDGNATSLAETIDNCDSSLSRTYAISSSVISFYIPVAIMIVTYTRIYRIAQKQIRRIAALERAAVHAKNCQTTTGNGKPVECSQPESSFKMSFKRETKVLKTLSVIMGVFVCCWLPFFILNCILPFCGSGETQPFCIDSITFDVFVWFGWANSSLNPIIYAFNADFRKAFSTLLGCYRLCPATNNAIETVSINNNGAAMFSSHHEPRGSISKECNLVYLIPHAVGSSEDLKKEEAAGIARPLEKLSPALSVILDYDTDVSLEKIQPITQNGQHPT
Procedure: (§1) The human, rhesus monkey, dog, or mouse D1 receptor was cloned into the Jump-In vector system (Life Technologies Corp, CA) and transiently transfected into HEK293 cells. Increases in cAMP by DPTQ (free base, Eli Lilly) were measured in the presence of an EC20 concentration of dopamine. The EC50 values for each species along with % max stimulation (where dopamine max stimulation equals 100%) are presented in Table 1. These in vitro studies were performed at Eli Lilly and Company, Indianapolis, in USA. For further details on the measurement of effects on cAMP accumulation in these transiently transfected cells, see Hao et al. ([2019]).

[3] = biological target: T2, mouse D1 receptor (Mus musculus, UniProt Q61616); test: as above; format: cell-based; conditions: mouse D1, HEK293 transient, n = 4
T2 construct: expressed in transfected cells; host or cells: HEK293 (transient, Jump-In vector)
T2 sequence (Q61616 whole entry): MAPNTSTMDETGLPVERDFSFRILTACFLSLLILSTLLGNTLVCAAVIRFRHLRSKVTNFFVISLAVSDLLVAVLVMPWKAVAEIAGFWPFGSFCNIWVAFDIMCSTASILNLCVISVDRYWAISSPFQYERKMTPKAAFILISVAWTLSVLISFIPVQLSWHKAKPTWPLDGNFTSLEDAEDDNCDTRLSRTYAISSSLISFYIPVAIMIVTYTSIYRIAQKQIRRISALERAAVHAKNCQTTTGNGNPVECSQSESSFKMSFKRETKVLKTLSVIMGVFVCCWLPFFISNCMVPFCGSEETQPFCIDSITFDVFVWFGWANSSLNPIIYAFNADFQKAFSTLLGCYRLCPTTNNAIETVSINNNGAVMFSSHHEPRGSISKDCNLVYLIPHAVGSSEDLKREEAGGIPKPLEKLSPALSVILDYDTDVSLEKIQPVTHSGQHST
Procedure: as §1

[4] = Plasma ligand exposure after IM injection (LC/MS) and projected brain concentrations; format: in vivo, macaque monkeys
Procedure: Plasma samples were collected in EDTA tubes at 0, 0.25, 0.50, 1, 2, 4, 8, 12, and 24 h after a bolus IM injection and stored at − 70C until further analysis by LC/MS (for further details see Hao et al. [2019]). For the lower dose of 0.1 mg/kg, IM, plasma samples were collected from three of the animals participating in the spatial working memory task at Yale University, at approximately 1.5 h after dosing (~ 30 min after completion of behavioral test session). Animals were acclimated to sitting freely in a customized chair and having one leg held for hair trimming (if necessary), wiping with 70% alcohol, and saphenous venopuncture using a BD Vacutainer tube inside a safety holder. For the 5 mg/kg, IM dose, plasma samples were collected in a separate study in three male adult macaque monkeys at Eli Lilly and Company, Indianapolis, IN. The collection and storage of samples followed the procedure described above, and analysis of D1 ligand levels was carried out at Eli Lilly and Company, Indianapolis, IN, USA, using liquid chromatography and tandem mass spectrometry.

[5] = tested on: rhesus monkey; test: Spatial delayed response working memory task; format: in vivo, rhesus and one stumptail macaque; conditions: for Delay-dependent errors: 0.1 mg/kg; for Delay-dependent errors at short delays: 1.0 mg/kg
Procedure: Sixteen rhesus and one stumptail macaque participated in the study (details provided below) that was performed at Yale University, New Haven CT, USA. Animals were used and cared for in full accordance with Yale University’s IACUC guidelines and polices in addition to all U.S. Federal policies and regulations. The monkeys were fed their normal diet each day, including appropriately nutritional biscuits and multiple fruits and vegetables for enrichment. Testing and any training occurred just before their main food course. This food consisted of biscuits, delivered each day, and all animals had full 24-h access to ad libitum water. Participation in cognitive testing was ensured by the enrichment of the environmental stimulation and the provision of the animals’ favorite food treats as rewards in the task, including yoghurt, raisins, almonds, grapes, fruit loops, and multiple other food items (Roberts et al [2010]).
The circuitry involved in this response is almost exclusively “dorsal stream” involving dorsolateral prefrontal cortex, particularly Area 46, and the lateral intraparietal sulcus (Goldman-Rakic [1996]). For a full description of the task used here, see Roberts et al. ([2010]). Animals were tested in a sound-attenuated room incorporating a testing chamber. In this task one of several well locations is baited with food in view of the animal and the wells are then covered with identical plaques. An opaque shutter is then lowered for one of 5 variable delays and then raised to allow the animal to make a response to one of the well locations to retrieve the food. Each delay length was repeated 4 times in a semirandom distribution across the 20 trials in each testing session. Each animal was stabilized prior to commencing any administration by gradually incrementing the number of wells (starting at just 2) and the lengths of the delay. The 5 variable delay lengths were set at 0, 1, 2, 3, and 4 s multiplied by a factor “N.” Thus, N was incremented by 1 up to a maximum of 10 until the subject performed at 80% or more across 3 consecutive test sessions whereupon the number of wells was incremented by 1. This process was repeated for each individual until they reached stable performance (65–75% ± ≤ 2.5% correct). This normalized level of performance allows for the sensitive detection of any impairment or improvement produced by experimental conditions. For baseline data for this study, we took 7 or more consecutive data points that had been collected in previous weeks which fell within the stable limits for the test. For the total group of 17 animals participating in this study, the median well number was 4 (range 2–7) and the median N value was 3 (range 1–7). Animals were typically tested 2 to 3 days a week.
DPTQ (free base, Eli Lilly & Co.) was prepared as described above for the spontaneous eye blink test. Animals (4 males and 6 females, mean age = 22.1 ± 1.7 years) were originally assigned to receive either vehicle or DPTQ 2.5 mg/kg IM in a semi-random design. One animal received vehicle but was not dosed with DPTQ. This same group of animals was later used in a repeated dosing study with DPTQ 2.5 mg/kg vs vehicle. After a protracted washout period of several months we tested the lower doses of 0.1 mg/kg and 1.0 mg/kg in ascending order. This group of 10 animals included 3 from the previous study (3 males, 7 females (including one aged stumptail macaque); average age = 22.6 ± 1.7 years). The youngest animal in this study was aged 17.3 years. None of the animals were naïve and had all been used in previous studies with other compounds. They were given an extensive washout of weeks or months prior to this study and were established to have normal baseline performance on the task. During the study, animals were washed out based on known PK properties (half-life) of this drug as well as the baseline performance of each individual animal. […]

[6] = Brain penetration, unbound brain/plasma ratio and unbound ligand fraction; conditions: J. Cramer, unpublished data

C[C@H]1c2cccc(CC(C)(C)O)c2C[C@H](CO)N1C(=O)Cc1c(Cl)cccc1Cl [DPTQ]
EC50 [1]: 76 nM | EC50 [2]: 38 nM | Max stimulation (% of max DA) [2]: 82 % of max DA | EC50 [3]: 534 nM | Max stimulation (% of max DA) [3]: 41 % of max DA | Estimated unbound ligand concentrations in the brain ([4]; 0.1 mg/kg IM, 1.5 h after dosing): 1 to 2 nM | Projected unbound brain concentration as multiple of cAMP EC50 ([4]; 5 mg/kg IM, 2 h post dosing, hD1 and monkey D1 cAMP assay): eightfold down to onefold | Plasma levels at 0.1 mg/kg IM relative to 5 mg/kg IM (times lower) ([4]; 0.1 vs 5 mg/kg IM): about 50 × | Plasma concentrations at late time points ([4]; after 12 or 24 h): negligible | Working memory performance over 2 weeks ([5]; 0.1 mg/kg IM, n = 10, no diminution on day 3, p = 0.014): modest enhancement of working memory | Delay-dependent errors ([5]; day 1, short (0, 1) N and long (3, 4) N delays): slight increase in errors | Delay-dependent errors ([5]; day 5, particularly long delays): small but non-significant decrease in errors | Working memory performance over 2 weeks ([5]; 1.0 mg/kg IM, n = 8, p = 0.006, strongest day 4 p < 0.0001): significant improvement in working memory | Delay-dependent errors at short delays ([5]; day 1): no reduction in errors | Delay-dependent errors at short delays ([5]; day 5): reduction | Working memory performance day 3 ([5]; 2.5 mg/kg IM on days 1 and 5, n = 6): non-significant dip | Working memory performance day 6 ([5]; 2.5 mg/kg IM on days 1 and 5, day after repeat dose): reduction in performance to baseline | Working memory performance days 8-14 ([5]; 2.5 mg/kg IM on days 1 and 5, days 8, 12 p < 0.05, days 10, 14 p < 0.01): enhancement | Working memory performance days 4 and 5 ([5]; 2.5 mg/kg IM on days 1 and 5, p < 0.01): rebound enhancement | Working memory performance, acute effect ([5]; 2.5 mg/kg IM single dose, day 1, 1 h post injection, n = 9): No immediate acute effect | Diminution of performance ([5]; 2.5 mg/kg IM single dose, day 2): 10% | Mean performance score ([5]; 2.5 mg/kg IM single dose, day 3, p = 0.025 vs baseline, baseline 65–75% correct): 61.1 | Mean performance score ([5]; 2.5 mg/kg IM single dose, day 4, improvement days 4, 5, 6 p < 0.01): 84.3 | Working memory deficit on day 3 ([5]; 2.5 mg/kg day 1, vehicle day 5, n = 10, p = 0.278 vs baseline): small and did not achieve significance | Working memory performance days 4-12 ([5]; 2.5 mg/kg day 1, vehicle day 5, days 4, 8 p < 0.001, day 5 p < 0.0001, days 10, 12 p < 0.05): enhancement | Dose range over which procognitive effects were observed ([5]; 0.1 to 2.5 mg/kg IM): at least 25 fold | Acute effect on spatial working memory ([5]; 1 h after injection, regardless of the dose administered): entirely null acute effect | Score on day 3 at 0.1 and 1.0 mg/kg compared with 2.5 mg/kg ([5]; day 3, p < 0.01, p < 0.05 respectively): significantly higher score | Score on day 4 at 2.5 mg/kg compared with 0.1 mg/kg ([5]; day 4): significantly greater | Difference in scores attributable to dose ([5]; day 5, 0.1, 1.0, 2.5 mg/kg): No difference | Unbound brain vs unbound plasma concentration ratio [6]: about 0.3 | Unbound ligand fraction [6]: 0.068
